Measured values from ChEMBL document CHEMBL1147946, “3-{2-[Bis-(4-fluorophenyl)methoxy]ethyl}-6-substituted-3,6-diazabicyclo[3.1.1]heptanes as novel potent dopamine uptake inhibitors” (Bioorg Med Chem, 2007).

These compounds were tested against Sodium-dependent dopamine transporter (Rattus norvegicus, UniProt P23977) (assay: Inhibition of [3H]dopamine uptake at DAT in Sprague-Dawley rat striatum synaptosome).
Type: tissue-based

Sodium-dependent dopamine transporter, sequence (P23977 whole entry): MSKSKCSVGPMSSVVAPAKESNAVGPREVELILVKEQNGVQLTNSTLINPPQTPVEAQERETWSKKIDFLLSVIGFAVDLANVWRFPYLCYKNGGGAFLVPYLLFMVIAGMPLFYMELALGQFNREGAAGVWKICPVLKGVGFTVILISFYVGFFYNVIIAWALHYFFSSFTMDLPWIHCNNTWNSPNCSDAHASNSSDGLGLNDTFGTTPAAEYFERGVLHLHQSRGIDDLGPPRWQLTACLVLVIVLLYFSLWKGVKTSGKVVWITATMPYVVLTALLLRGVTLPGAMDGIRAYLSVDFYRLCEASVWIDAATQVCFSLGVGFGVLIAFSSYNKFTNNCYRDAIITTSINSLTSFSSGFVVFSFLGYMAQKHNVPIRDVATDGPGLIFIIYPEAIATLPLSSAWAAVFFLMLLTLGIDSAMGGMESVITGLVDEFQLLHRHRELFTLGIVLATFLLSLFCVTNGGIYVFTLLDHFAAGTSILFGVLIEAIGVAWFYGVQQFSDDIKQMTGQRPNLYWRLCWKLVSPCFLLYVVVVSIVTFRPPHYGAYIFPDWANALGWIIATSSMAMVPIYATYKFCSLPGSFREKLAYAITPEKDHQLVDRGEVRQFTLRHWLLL

Compound | Ki [nM]
Fc1ccc(C(OCCN2CC3CC(C2)N3Cc2cc3ccccc3s2)c2ccc(F)cc2)cc1 | 35
Fc1ccc(C(OCCN2CC3CC(C2)N3Cc2cc3ccccc3o2)c2ccc(F)cc2)cc1 | 37.5
Fc1ccc(C(OCCN2CC3CC(C2)N3CC2=Cc3ccccc3C2)c2ccc(F)cc2)cc1 | 6.5
Cc1ccccc1/C=C/CN1C2CC1CN(CCOC(c1ccc(F)cc1)c1ccc(F)cc1)C2 | 6.25
Fc1ccc(C(OCCN2CC3CC(C2)N3C/C=C/c2ccccc2)c2ccc(F)cc2)cc1 | 9.1
Fc1ccc(C(OCCN2CC3CC(C2)N3C/C=C/c2cccs2)c2ccc(F)cc2)cc1 | 12.6
Fc1ccc(C(OCCN2CC3CC(C2)N3C/C=C/c2ccco2)c2ccc(F)cc2)cc1 | 8.8
Fc1ccc(C(OCCN2CC3CC(C2)N3C/C=C/c2ccc3ccccc3c2)c2ccc(F)cc2)cc1 | 45.6
Fc1ccc(C(OCCN2CC3CC(C2)N3Cc2cc3ccccc3[nH]2)c2ccc(F)cc2)cc1 | 5.5
